According to ChEMBL document CHEMBL1201862, “PubChem BioAssay data set” (2004):
Calls of active or inactive are those of the source.

How the values were obtained:
[1] = biological target: T1, Serine/threonine-protein phosphatase (Candida dubliniensis (strain CD36 / CBS 7987 / NCPF 3949 / NRRLY-17841) (Yeast), UniProt B9W6M3); assay: blockers of CaCl2-induced CDRE-lacZ signaling – S. cerevisiae, luminescence, secondary, dose response (AID 2388); assay type: functional, cell-based;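 note: yeast reporter cells carrying a calcineurin-responsive lacZ construct stimulated with calcium chloride; luminescent beta-galactosidase reporter signal in whole cells rather than isolated phosphatase activity; potency for inhibition where a drop in reporter signal means calcineurin blockade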
T1 sequence (B9W6M3 whole entry): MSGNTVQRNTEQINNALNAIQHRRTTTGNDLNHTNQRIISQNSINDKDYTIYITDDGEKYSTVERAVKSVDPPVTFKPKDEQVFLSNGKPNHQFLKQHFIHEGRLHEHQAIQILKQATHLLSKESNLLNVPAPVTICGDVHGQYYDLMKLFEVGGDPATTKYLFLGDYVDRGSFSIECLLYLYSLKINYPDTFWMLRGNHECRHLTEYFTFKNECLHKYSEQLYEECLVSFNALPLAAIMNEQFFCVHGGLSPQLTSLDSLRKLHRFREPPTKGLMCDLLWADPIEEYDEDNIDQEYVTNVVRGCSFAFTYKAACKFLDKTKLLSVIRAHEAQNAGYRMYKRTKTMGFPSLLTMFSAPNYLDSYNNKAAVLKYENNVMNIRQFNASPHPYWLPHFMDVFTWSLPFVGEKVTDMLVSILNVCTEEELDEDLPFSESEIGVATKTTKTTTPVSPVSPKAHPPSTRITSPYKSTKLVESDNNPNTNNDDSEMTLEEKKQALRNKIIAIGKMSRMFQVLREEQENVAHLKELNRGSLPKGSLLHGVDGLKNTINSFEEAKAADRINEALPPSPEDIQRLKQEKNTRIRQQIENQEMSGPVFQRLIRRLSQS

[2] = fluconazole-exposed Candida albicans growth modulators – fluorescence, retest, confirmation (AID 2467); assay type: functional, cell-based
[3] = test system: Streptococcus sp. 'group A'; assay: Streptococcus pyogenes SK(-)GAS viability under kanamycin – luminescence, BacTiterGlo, confirmation, counter-screen for streptokinase expression inhibitor project, dose response (AID 1900); assay type: functional, organism-based
[4] = biological target: ATP-dependent molecular chaperone HSP82 (Candida albicans (strain WO-1) (Yeast), UniProt C4YTQ8); assay: steroid-induced GRE reporter decrease in yeast – S. cerevisiae, luminescence, Hsp90 inhibitor project, dose response (AID 2400); assay type: functional, cell-based;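 note: beta-galactosidase luminescence from glucocorticoid response element reporter as proxy for Hsp90 function; inhibitor potency where signal loss means Hsp90 inhibition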
[5] = Luminescence Cell-Based Dose Retest to Confirm Inhibitors of Cancer Stem Cells. [Related pubchem assays (depositor defined):AID2717, AID2721]; assay type: functional; settings: Homo sapiens
[6] = NIH-3T3 fibroblast cytotoxicity, dose response, cytotoxicity control, cell-based, fluorescence, Alamar Blue, secondary assay (AID 2327); assay type: functional;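 note: NIH-3T3 mouse fibroblasts cultured with fluconazole at 8 µg/mL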
[7] = biological target: T2, High affinity choline transporter 1 (Homo sapiens, UniProt Q9GZV3); assay: human choline transporter blockers, potency – cell-based, 5-point CRC, membrane potential dye, dose response (AID 504840); assay type: functional
T2 sequence (Q9GZV3 whole entry): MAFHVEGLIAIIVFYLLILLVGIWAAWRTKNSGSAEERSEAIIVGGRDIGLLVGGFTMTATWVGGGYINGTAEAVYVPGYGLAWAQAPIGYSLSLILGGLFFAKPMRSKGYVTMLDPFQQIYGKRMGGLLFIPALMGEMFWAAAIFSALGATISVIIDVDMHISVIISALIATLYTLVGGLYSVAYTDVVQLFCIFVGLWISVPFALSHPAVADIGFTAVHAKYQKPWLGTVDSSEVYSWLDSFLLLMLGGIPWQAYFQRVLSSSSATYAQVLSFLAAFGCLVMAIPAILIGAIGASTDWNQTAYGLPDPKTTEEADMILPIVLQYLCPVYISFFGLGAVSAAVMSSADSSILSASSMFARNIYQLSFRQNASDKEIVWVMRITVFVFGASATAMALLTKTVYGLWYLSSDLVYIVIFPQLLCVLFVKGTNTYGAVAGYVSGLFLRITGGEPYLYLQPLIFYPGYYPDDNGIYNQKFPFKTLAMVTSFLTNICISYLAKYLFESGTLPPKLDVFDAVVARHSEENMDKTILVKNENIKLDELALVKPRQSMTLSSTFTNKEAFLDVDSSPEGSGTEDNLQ

Streptococcus = assay: GAS UMAA2166 growth inhibition – luminescence, BacTiterGlo, counter-screen for streptokinase expression inhibitor project, dose response (AID 1915); assay type: functional, organism-based;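 note: potency for reduction of bacterial viability or growth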
Streptokinase A = biological target: T3, Streptokinase A (Streptococcus pyogenes serotype M1, UniProt P10520); assay: viability-normalized secreted streptokinase activity reduction – plasminogen activation absorbance, OD405, dose response (AID 1914); assay type: functional, Streptococcus pyogenes M1 GAS;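 note: secreted streptokinase activity via plasminogen activation per viability signal from cell pellet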
T3 sequence (P10520 whole entry): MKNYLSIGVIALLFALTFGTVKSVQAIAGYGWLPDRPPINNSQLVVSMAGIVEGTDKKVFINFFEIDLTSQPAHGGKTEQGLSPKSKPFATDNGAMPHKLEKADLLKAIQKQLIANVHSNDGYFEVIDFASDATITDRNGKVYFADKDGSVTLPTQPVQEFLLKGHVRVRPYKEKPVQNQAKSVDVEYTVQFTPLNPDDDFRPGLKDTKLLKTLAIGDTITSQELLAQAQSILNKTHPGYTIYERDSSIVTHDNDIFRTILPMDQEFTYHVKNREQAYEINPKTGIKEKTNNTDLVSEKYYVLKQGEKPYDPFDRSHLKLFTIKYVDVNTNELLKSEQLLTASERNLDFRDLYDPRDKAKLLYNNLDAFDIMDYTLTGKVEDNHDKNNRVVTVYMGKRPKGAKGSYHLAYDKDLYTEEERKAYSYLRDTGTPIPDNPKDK

[8] = biological target: T4, DNA repair protein RAD52 homolog (Homo sapiens, UniProt P43351); assay type: functional, biochemical
T4 sequence (P43351 whole entry): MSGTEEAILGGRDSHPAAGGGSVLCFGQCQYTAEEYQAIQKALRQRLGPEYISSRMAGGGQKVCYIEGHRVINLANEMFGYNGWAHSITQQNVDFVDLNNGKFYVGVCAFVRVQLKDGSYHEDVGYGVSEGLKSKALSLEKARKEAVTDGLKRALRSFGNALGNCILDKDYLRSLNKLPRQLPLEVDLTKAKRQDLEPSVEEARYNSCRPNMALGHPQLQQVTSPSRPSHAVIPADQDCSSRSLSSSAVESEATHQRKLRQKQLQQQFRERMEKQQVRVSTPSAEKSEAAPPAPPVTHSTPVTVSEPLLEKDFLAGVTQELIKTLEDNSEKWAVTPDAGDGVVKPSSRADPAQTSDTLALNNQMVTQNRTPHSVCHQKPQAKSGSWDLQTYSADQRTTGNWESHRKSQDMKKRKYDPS

[9] = biological target: Heat shock protein HSP 90-alpha (Homo sapiens, UniProt P07900); assay type: functional, organism-based
Vero = assay: viability of Vero cells under compound – cytotoxicity control for flavivirus capping enzyme inhibitors (AID 588742); assay type: functional; settings: Chlorocebus sabaeus
HEK293 = assay: cells; settings: Homo sapiens;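 note: cells exposed to compound for 14 hours overnight before viability readout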
Tumor necrosis factor = Tumor necrosis factor (Homo sapiens, UniProt P01375); assay: analog potency on TNFa NF-kB signaling – cell-based, revised, SAR follow-up (AID 2337); assay type: functional
[10] = biological target: T5, Nucleotide-binding oligomerization domain-containing protein 1 (Homo sapiens, UniProt Q9Y239); assay: blockers of NOD1 pathway activity – revised, SAR follow-up (AID 2333); assay type: functional
T5 sequence (Q9Y239 whole entry): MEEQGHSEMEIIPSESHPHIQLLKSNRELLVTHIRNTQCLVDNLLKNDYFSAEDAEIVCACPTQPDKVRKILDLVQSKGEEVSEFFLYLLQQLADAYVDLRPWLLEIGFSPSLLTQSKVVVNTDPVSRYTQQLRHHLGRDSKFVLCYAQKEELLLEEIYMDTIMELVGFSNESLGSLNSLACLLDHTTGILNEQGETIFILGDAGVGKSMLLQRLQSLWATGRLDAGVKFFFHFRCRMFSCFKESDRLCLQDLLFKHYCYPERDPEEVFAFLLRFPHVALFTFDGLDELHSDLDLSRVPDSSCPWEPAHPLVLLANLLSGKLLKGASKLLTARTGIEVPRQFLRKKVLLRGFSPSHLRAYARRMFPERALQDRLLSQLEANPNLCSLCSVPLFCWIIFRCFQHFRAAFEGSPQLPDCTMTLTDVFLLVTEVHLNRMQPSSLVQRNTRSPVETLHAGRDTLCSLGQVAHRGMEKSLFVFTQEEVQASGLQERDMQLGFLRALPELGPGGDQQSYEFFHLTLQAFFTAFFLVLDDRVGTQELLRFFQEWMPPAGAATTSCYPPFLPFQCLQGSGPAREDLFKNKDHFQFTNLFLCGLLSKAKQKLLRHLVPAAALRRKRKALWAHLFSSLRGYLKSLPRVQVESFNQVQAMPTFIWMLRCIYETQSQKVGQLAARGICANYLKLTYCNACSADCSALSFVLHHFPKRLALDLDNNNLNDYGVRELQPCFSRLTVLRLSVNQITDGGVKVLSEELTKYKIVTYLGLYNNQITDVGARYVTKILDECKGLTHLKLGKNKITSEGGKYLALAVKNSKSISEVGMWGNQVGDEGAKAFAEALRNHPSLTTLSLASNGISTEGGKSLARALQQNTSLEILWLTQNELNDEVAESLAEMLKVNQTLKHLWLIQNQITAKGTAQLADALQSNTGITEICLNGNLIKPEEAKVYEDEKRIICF

Chain of ATP-dependent molecular chaperone HSP82 (C4YTQ8 whole entry): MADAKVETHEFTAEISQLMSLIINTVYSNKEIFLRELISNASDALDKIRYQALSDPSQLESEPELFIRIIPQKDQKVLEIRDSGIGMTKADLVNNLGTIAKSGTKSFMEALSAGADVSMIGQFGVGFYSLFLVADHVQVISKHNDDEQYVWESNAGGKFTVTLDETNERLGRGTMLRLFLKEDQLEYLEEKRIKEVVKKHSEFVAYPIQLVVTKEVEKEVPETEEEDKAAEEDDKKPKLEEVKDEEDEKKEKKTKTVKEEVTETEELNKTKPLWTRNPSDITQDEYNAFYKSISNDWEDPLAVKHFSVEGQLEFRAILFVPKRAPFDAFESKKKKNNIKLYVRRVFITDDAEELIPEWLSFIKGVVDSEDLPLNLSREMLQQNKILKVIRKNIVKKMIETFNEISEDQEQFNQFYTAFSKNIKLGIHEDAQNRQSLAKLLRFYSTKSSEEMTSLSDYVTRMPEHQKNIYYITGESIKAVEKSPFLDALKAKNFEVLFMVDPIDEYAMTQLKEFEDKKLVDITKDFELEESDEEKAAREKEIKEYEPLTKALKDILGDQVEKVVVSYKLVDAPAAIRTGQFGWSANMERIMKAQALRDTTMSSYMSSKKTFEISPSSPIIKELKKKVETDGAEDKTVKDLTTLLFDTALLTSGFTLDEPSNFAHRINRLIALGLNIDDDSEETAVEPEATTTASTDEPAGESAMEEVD
Chain of Tumor necrosis factor (P01375 whole entry, the tested form may be a part): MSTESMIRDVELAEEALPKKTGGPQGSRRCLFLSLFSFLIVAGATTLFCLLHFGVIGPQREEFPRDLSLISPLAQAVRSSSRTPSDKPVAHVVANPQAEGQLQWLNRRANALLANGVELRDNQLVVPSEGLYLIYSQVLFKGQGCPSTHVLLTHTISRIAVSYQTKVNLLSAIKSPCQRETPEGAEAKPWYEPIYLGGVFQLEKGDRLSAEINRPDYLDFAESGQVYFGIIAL

| SMILES | EC50 [1] | EC50 [2] | EC50 [3] | EC50 [4] | AC50 [5] | EC50 [6] | IC50 [7] | EC50 (Streptococcus) | EC50 (Streptokinase A) | AC50 [8] | AC50 [9] | CC50 (Vero) | IC50 (HEK293) | IC50 (Tumor necrosis factor) | IC50 [10] |
| --- | --- | --- | --- | --- | --- | --- | --- | --- | --- | --- | --- | --- | --- | --- | --- |
| O=C(NNC1=C(C(=O)C(F)(F)F)CCC1)c1cccc(Cl)c1 | > 180 µM (inactive) | 0.741 µM (active) | 1.23 µM (active) | 24.6 µM (active) | 1.95 µM (active) | > 150 µM (inactive) | 11 µM (active) | 2.77 µM (active) | > 150 µM (not active) | – | – | – | – | – | – |
| CC(C)N1CCc2c(sc(NC(=O)c3nc4ccccc4s3)c2C(N)=O)C1 | > 180 µM (inactive) | 0.491 µM (active) | – | 51.8 µM (active) | – | > 150 µM (inactive) | – | – | – | 9.55 µM (active) | – | – | – | – | – |
| [O-][n+]1cccc2c(Br)cc(Br)c(O)c21 | > 180 µM (inactive) | 0.651 µM (active) | 0.865 µM (active) | > 160 µM (inactive) | – | > 150 µM (inconclusive) | – | 18.7 µM (active) | > 150 µM (not active) | – | 3.15 µM (active) | > 40 µM (active) | – | – | – |
| COc1ccc(NC(=O)c2ccc(CN3CCc4ccccc43)cc2)cc1 | – | – | – | – | – | – | – | – | – | – | – | – | > 20 µM (inactive) | > 20 µM (inactive) | > 20 µM (inactive) |
